The subject of assay [1] is pCREB in gated human CD4+ cells. Briefly: Intracellular pCREB by flow cytometry in NECA-treated PBMCs, gated CD4+ T cells. In kind it is cell-based. The conditions noted are these: read-out: Activity (reduction of pCREB, restoration to normal physiological levels). How it is done:
(§1) Human peripheral blood mononuclear cells (PBMCs) were isolated using density centrifugation from fresh whole blood of healthy human blood donors. Cells were cryopreserved and thawed and rested for several hours in complete cell culture media containing human albumin and antibiotics (penicillin and streptomycin; 100 units or mg per ml respectively). […] DMSO was used as the storage diluent for concentrated A2AR antagonists. NECA and DMSO controls (% v/v) were also tested in parallel to the therapeutic candidates. After the indicated incubation time with NECA, cells were either stained to determine their intracellular level of pCREB, or activated with Dynabeads overnight before staining for intracellular cytokines, as described below.
(§2) PBMCs that were cultured with A2AR antagonists in the presence of NECA and were subsequently fixed and permeabilized using ice cold paraformaldehyde and methanol-based kit reagents (ThermoFisher and Miltenyi, respectively). […] Stained cells were acquired using a Fortessa flow cytometer (BD). Gating of the desired cell subsets was performed using FSC-A vs FSC—H to remove doublet cells, FSC vs SSC parameters to identify cells with lymphocyte-like morphology, followed by CD3^+ T cell and CD4^+ or CD8^+ sub-gating. The fold change in mean fluorescence intensity (MFI) of intracellular pCREB in gated CD4 or CD8^+ T cells was calculated using NECA-only conditions, and divided by NECA and A2AR antagonist-cultured cells from the same donor. The overall activity of the tested compounds was calculated using the average of at least 3 donors.
(§3) Compounds of the invention were tested in physiological conditions using healthy human peripheral blood mononuclear cells as well as in the presence of human albumin to increase the physiological relevance of the assay. […] The activity scale represented is the average for at least 3 donors, compared to the NECA-only control.
For orientation: In flow cytometry, cells or beads pass a laser one at a time.

In assay [2] the test system is pCREB in gated human CD8+ cells. The assay is described as follows: Intracellular pCREB by flow cytometry in NECA-treated PBMCs, gated CD8+ T cells. In kind it is cell-based. The following applies: read-out: Activity (reduction of pCREB, restoration to normal physiological levels). How it is done: as §1, §2, §3
Another assay deals with A2AR (Homo sapiens, UniProt P29274). The assay is described as follows: cAMP biosensor antagonist potency assay in CHO cells expressing recombinant A2AR.
A2AR, sequence (P29274 whole entry): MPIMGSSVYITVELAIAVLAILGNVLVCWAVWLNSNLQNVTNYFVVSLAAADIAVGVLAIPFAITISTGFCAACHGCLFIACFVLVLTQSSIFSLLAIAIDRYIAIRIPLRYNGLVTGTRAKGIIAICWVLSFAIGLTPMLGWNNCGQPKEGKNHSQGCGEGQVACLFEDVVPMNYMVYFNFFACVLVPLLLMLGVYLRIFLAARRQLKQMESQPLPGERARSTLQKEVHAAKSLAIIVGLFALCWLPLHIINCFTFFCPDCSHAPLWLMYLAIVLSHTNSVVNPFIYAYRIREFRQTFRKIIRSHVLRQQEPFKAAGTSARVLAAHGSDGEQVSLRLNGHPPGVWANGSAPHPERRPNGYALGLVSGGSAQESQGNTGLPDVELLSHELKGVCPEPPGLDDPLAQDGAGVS
[3] abbreviates: compound at 1 μM, 5 µM NECA, gated human CD4+ cells, average of at least 3 donors vs NECA-only control.
[4] abbreviates: compound at 1 μM, 5 µM NECA, gated human CD8+ cells, average of at least 3 donors vs NECA-only control.

Like-named read-outs stand apart in the source and are kept apart here.

Protocol for A2AR: Chinese Hamster Ovary (CHO) cells containing an in-house cAMP-based biosensor, described below, and expressing recombinant A2AR were used to characterize the potency of A2AR antagonists according to the invention. The biosensor contains a cAMP binding domain allowing the measurement of Gs and Gi-coupled receptors activation. Cells were treated in a 384 well plate with the indicated concentrations of A2AR antagonists, followed by the addition of an A2AR agonist, adenosine. cAMP levels were measured on a luminescent/fluorescent plate reader.
CHO cells expressing A2AR and the biosensor were seeded in a black 384-well plate (Nunc) and grown at 37° C. and 5% CO2 overnight. […] The cAMP biosensor allowed real-time monitoring of signals using an FDSS/μCELL (Hamamatsu). The assay was conducted in 1× Hanks Balanced Salt Solution (HBSS). The total volume of the reaction was 80 μl (45 μl of cells, 15 μl of antagonist and 20 μl of agonist). Data analysis was performed using GraphPad Prism.

Consider `Cc1ccc(-c2nc(N)nc3c2nnn3Cc2cccc(CO[C@H]3CCOC3)n2)o1` [Ciforadenant, 7-(5-methylfuran-2-yl)-3-[[6-[[(3S)-oxolan-3-yl]oxymethyl]pyridin-2-yl]methyl]triazolo[4,5-d]pyrimidin-5-amine, reference compound], for which the inhibition at 1 µM in assay [1] (setting [3]) and in assay [2] (setting [4]) was 70 to 90% each time.

With `Cc1cc(-c2nnc(N)nc2-c2ccc(F)cc2)cc(Cl)n1` [Imaradenant, 6-(2-chloro-6-methylpyridin-4-yl)-5-(4-fluorophenyl)-1,2,4-triazin-3-amine, reference compound], the inhibition at 1 µM in assay [1] (setting [3]) and in assay [2] (setting [4]) was 40 to 70% throughout.

For `N#Cc1c(N)nc(N2CCCCC2)c(C#N)c1-c1cccc(-c2cccc(F)n2)c1` [Compound 25, 2-amino-4-(3-(6-fluoropyridin-2-yl)phenyl)-6-(piperidin-1-yl)pyridine-3,5-dicarbonitrile], the IC50 on A2AR was less than 200 nM.

In the case of `N#Cc1c(N)nc(N2CCCCC2)c(C#N)c1-c1cc(F)cc(-c2cccnc2)c1` [Compound 31, 2-amino-4-(3-fluoro-5-(pyridin-3-yl)phenyl)-6-(piperidin-1-yl)pyridine-3,5-dicarbonitrile], the inhibition at 1 µM in assay [1] (setting [3]) lay in the range of 40 to 70%; in assay [2] (setting [4]) it was 0 to 40%. Moreover, the IC50 at A2AR was less than 200 nM.

On to `Cc1c(C#N)cccc1-c1cc(-c2cn(Cc3cccc(C(C)(C)O)n3)nn2)nc(N)n1` [Etrumadenant, 3-[2-Amino-6-[1-[[6-(2-hydroxypropan-2-yl)pyridin-2-yl]methyl]triazol-4-yl]pyrimidin-4-yl]-2-methylbenzonitrile, reference compound], for which the inhibition at 1 µM in assay [1] (setting [3]) and in assay [2] (setting [4]) was more than 90% in each case.

On to `COc1nc(N)c(C#N)c(-c2cccc(-c3ccccc3)c2)c1C#N` [Compound 21, 4-([1,1′-biphenyl]-3-yl)-2-amino-6-methoxypyridine-3,5-dicarbonitrile], for which the IC50 on A2AR lay in the range of 200 to 1000 nM.

As to `N#Cc1c(N)nc(N2CCCCC2)c(C#N)c1-c1cccc(-c2ccccc2)c1` [Compound 3, 4-([1,1′-biphenyl]-3-yl)-2-amino-6-(piperidin-1-yl)pyridine-3,5-dicarbonitrile], the inhibition at 1 µM in assay [1] (Homo sapiens) and in assay [2] (Homo sapiens) was more than 90% in each case.

`N#Cc1c(N)nc(N2CCCCC2)c(C#N)c1-c1cccc(-c2cncc(F)c2)c1` [Compound 27, 2-amino-4-(3-(5-fluoropyridin-3-yl)phenyl)-6-(piperidin-1-yl)pyridine-3,5-dicarbonitrile]: at A2AR, the IC50 was 200 to 1000 nM.

As to `N#Cc1c(N)nc(N2CCCCC2)c(C#N)c1-c1cc(-c2cccnc2)ccc1F` [Compound 29, 2-amino-4-(2-fluoro-5-(pyridin-3-yl)phenyl)-6-(piperidin-1-yl)pyridine-3,5-dicarbonitrile], the IC50 on A2AR was less than 200 nM.

As for `N#Cc1c(N)nc(N2CCCCC2)c(C#N)c1-c1cccc(-c2ncccc2F)c1` [Compound 24, 2-amino-4-(3-(3-fluoropyridin-2-yl)phenyl)-6-(piperidin-1-yl)pyridine-3,5-dicarbonitrile], the inhibition at 1 µM in assay [1] (setting [3]) is 70 to 90%; in assay [2] (setting [4]), 40 to 70%. Besides, on A2AR, the IC50 is less than 200 nM.

As to `CCOc1nc(N)c(C#N)c(-c2cccc(-c3ccccc3)c2)c1C#N` [Compound 22, 4-([1,1′-biphenyl]-3-yl)-2-amino-6-ethoxypyridine-3,5-dicarbonitrile], the IC50 at A2AR was less than 200 nM.

In the case of `N#Cc1c(N)nc(N2CCOCC2)c(C#N)c1-c1cccc(-c2ccccc2)c1` [Compound 18, 4-([1,1′-biphenyl]-3-yl)-2-amino-6-morpholinopyridine-3,5-dicarbonitrile], the IC50 at A2AR lay within 200 to 1000 nM.

Consider `N#Cc1c(N)nc(N2CCCCC2)c(C#N)c1-c1cccc(-c2cc(F)ccn2)c1` [Compound 26, 2-amino-4-(3-(4-fluoropyridin-2-yl)phenyl)-6-(piperidin-1-yl)pyridine-3,5-dicarbonitrile], for which the IC50 on A2AR was in the range of 200 to 1000 nM.

`N#Cc1c(N)nc(N2CCCCC2)c(C#N)c1-c1cccc(-c2ccccc2F)c1` [Compound 4, 2-amino-4-(2′-fluoro-[1,1′-biphenyl]-3-yl)-6-(piperidin-1-yl)pyridine-3,5-dicarbonitrile]: the inhibition at 1 µM in assay [1] (Homo sapiens) and in assay [2] (Homo sapiens) was more than 90% throughout.

On to `N#Cc1c(N)nc(N2CCCCC2)c(C#N)c1-c1cccc(-c2cccnc2F)c1` [Compound 28, 2-amino-4-(3-(2-fluoropyridin-3-yl)phenyl)-6-(piperidin-1-yl)pyridine-3,5-dicarbonitrile], for which the inhibition at 1 µM in assay [1] (setting [3]) is more than 90%; in assay [2] (setting [4]) it was 70 to 90%. Also, at A2AR, the concentration for half-maximal inhibition (IC50) was less than 200 nM.

For `Nc1nc(-n2cccn2)nc(-n2cccn2)c1Br` [Taminadenant, 5-bromo-2,6-di(pyrazol-1-yl)pyrimidin-4-amine, reference compound], the inhibition at 1 µM in assay [1] (setting [3]) and in assay [2] (setting [4]) was 0 to 40% each time.

On to `COCCOc1ccc(N2CCN(CCn3ncc4c3nc(N)n3nc(-c5ccco5)nc43)CC2)cc1` [Preladenant, 4-(furan-2-yl)-10-[2-[4-[4-(2-methoxyethoxy)phenyl]piperazin-1-yl]ethyl]-3,5,6,8,10,11-hexazatricyclo[7.3.0.0^2,6]dodeca-1(9),2,4,7,11-pentaen-7-amine, reference compound], for which the inhibition at 1 µM in assay [1] (setting [3]) and in assay [2] (setting [4]) was 70 to 90% throughout.

Regarding `N#Cc1c(N)nc(N2CCCCC2)c(C#N)c1-c1cccc(-c2cccnc2)c1F` [Compound 30, 2-amino-4-(2-fluoro-3-(pyridin-3-yl)phenyl)-6-(piperidin-1-yl)pyridine-3,5-dicarbonitrile], the inhibition at 1 µM lay within 40 to 70% in assay [1] (setting [3]) and 0 to 40% in assay [2] (setting [4]). On A2AR, the IC50 is less than 200 nM.

The IC50 is the concentration that gives 50% inhibition.

These data come from patent US12692255B2, “Adenosine 2A receptor modulators for use in the treatment of cancer” (UNIVERSITE DE GENEVE, priority 2022, dated 2026).
